Tests used:
[1] = system: Rat; assay: concentration in liver after dosing; conditions: 0.5 h; dosed: Potassium Perfluorobutane Sulfonate; 20 mg/kg; oral; Male; Harlan Sprague Dawley
[2] = system: Rat; assay: concentration in brain after dosing; conditions: 0.5 h; dosed: Potassium Perfluorobutane Sulfonate; 20 mg/kg; oral; Female; Harlan Sprague Dawley
[3] = system: Rat; assay: concentration in kidney after dosing; conditions: 0.5 h; dosed: Potassium Perfluorobutane Sulfonate; 20 mg/kg; oral; Male; Harlan Sprague Dawley
[4] = system: Rat; assay: concentration in plasma after dosing; conditions: 0.75 h; dosed: Potassium Perfluorobutane Sulfonate; 4 mg/kg; iv; Female; Harlan Sprague-Dawley
[5] = system: Rat; assay: concentration in plasma after dosing; conditions: 0.25 h; dosed: Potassium Perfluorobutane Sulfonate; 4 mg/kg; iv; Male; F344
[6] = system: Rat; assay: concentration in kidney after dosing; conditions: 0.5 h; dosed: Potassium Perfluorobutane Sulfonate; 20 mg/kg; oral; Female; Harlan Sprague Dawley
[7] = system: Rat; assay: concentration in plasma after dosing; conditions: dosed: Potassium Perfluorobutane Sulfonate, 4 mg/kg, iv, Male, F344
[8] = system: Rat; assay: concentration in kidney after dosing; conditions: 0.5 h; dosed: Potassium Perfluorobutane Sulfonate; 20 mg/kg; oral; Female; Harlan Sprague Dawley; remark: listed apart in the source
[9] = system: Rat; assay: concentration in plasma after dosing; conditions: dosed: Potassium Perfluorobutane Sulfonate, 20 mg/kg, oral, Male, Harlan Sprague Dawley
[10] = system: Rat; assay: concentration in liver after dosing; conditions: 6 h; dosed: Fluorotelomer alcohol 8+2; 80 mg/kg; oral; Female; Harlan Sprague Dawley
[11] = system: Rat; assay: concentration in liver after dosing; conditions: 3 h; dosed: Fluorotelomer alcohol 8+2; 24 mg/kg; oral; Male; Harlan Sprague Dawley
[12] = system: Rat; assay: concentration in liver after dosing; conditions: 12 h; dosed: Perfluorooctanoic acid; 12 mg/kg; oral; Male; Harlan Sprague Dawley
[13] = system: Rat; assay: concentration in brain after dosing; conditions: 12 h; dosed: Perfluorooctanoic acid; 80 mg/kg; oral; Female; Harlan Sprague Dawley
[14] = system: Rat; assay: concentration in liver after dosing; conditions: 24 h; dosed: Perfluorooctanoic acid; 12 mg/kg; oral; Male; Harlan Sprague Dawley
[15] = system: Rat; assay: concentration in liver after dosing; conditions: 12 h; dosed: Perfluorooctanoic acid; 12 mg/kg; oral; Male; Harlan Sprague Dawley; remark: listed apart in the source
[16] = system: Rat; assay: concentration in plasma after dosing; conditions: dosed: 678-39-7, 40 mg/kg, iv, Female, Harlan Sprague-Dawley
[17] = system: Rat; assay: concentration in plasma after dosing; conditions: dosed: Fluorotelomer alcohol 8+2, 12 mg/kg, oral, Male, Harlan Sprague Dawley
[18] = system: Rat; assay: concentration in plasma after dosing; conditions: dosed: Fluorotelomer alcohol 8+2, 12 mg/kg, oral, Male, Harlan Sprague Dawley; remark: listed apart in the source
[19] = system: Rat; assay: concentration in plasma after dosing; conditions: dosed: Fluorotelomer alcohol 8+2, 12 mg/kg, oral, Male, Harlan Sprague Dawley; remark: listed apart in the source
[20] = system: Rat; assay: concentration in kidney after dosing; conditions: 6 h; dosed: Perfluorooctanoic acid; 12 mg/kg; oral; Male; Harlan Sprague Dawley
[21] = system: Rat; assay: concentration in plasma after dosing; conditions: 5 min; dosed: 678-39-7; 12 mg/kg; iv; Male; F344
[22] = system: Rat; assay: concentration in kidney after dosing; conditions: 3 h; dosed: Fluorotelomer alcohol 8+2; 80 mg/kg; oral; Female; Harlan Sprague Dawley
[23] = system: Rat; assay: concentration in kidney after dosing; conditions: 12 h; dosed: Perfluorooctanoic acid; 12 mg/kg; oral; Male; Harlan Sprague Dawley
[24] = system: Mouse; assay: concentration in plasma after dosing; conditions: 2 h; dosed: 2-Hydroxy-4-methoxybenzophenone; 250 mg/kg; oral; Female; B6C3F1
[25] = system: Rat; assay: concentration in plasma after dosing; conditions: dosed: 2-Hydroxy-4-methoxybenzophenone, 8 mg/kg, iv, Male, F344
[26] = system: Mouse; assay: concentration in plasma after dosing; conditions: 0.25 h; dosed: 2-Hydroxy-4-methoxybenzophenone; 250 mg/kg; oral; Female; B6C3F1
[27] = system: Mouse; assay: concentration in plasma after dosing; conditions: 0.25 h; dosed: 2-Hydroxy-4-methoxybenzophenone; 250 mg/kg; oral; Female; B6C3F1; remark: listed apart in the source
[28] = system: Mouse; assay: concentration in plasma after dosing; conditions: 10 min; dosed: 2-Hydroxy-4-methoxybenzophenone; 500 mg/kg; oral; Male; B6C3F1
[29] = system: Rat; assay: concentration in plasma after dosing; conditions: dosed: 2-Hydroxy-4-methoxybenzophenone, 500 mg/kg, oral, Male, F344
[30] = system: Mouse; assay: concentration in plasma after dosing; conditions: 2 h; dosed: 2-Hydroxy-4-methoxybenzophenone; 500 mg/kg; oral; Female; B6C3F1
[31] = system: rat; assay: amount in urine after dosing (umol); conditions: dosed: methanol, 100 mg/kg, iv, male, CDF(F344)/CrlBR
[32] = system: Rat; assay: concentration in plasma after dosing; conditions: 0.5 h; dosed: Nitrite; 40 mg/kg; oral; Female; F344
[33] = system: Rat; assay: concentration in plasma after dosing; conditions: 0.5 h; dosed: Nitrite; 80 mg/kg; oral; Female; F344
[34] = system: Rat; assay: concentration in plasma after dosing; conditions: dosed: Nitrite, 80 mg/kg, oral, Female, F344
[35] = system: Rat; assay: concentration in plasma after dosing; conditions: 10 min; dosed: Nitrite; 80 mg/kg; oral; Female; F344
[36] = system: Rat; assay: concentration in plasma after dosing; conditions: dosed: Nitrite, 20 mg/kg, iv, Male, F344
[37] = system: Rat; assay: concentration in plasma after dosing; conditions: 2 min; dosed: Nitrite; 80 mg/kg; oral; Female; F344
[38] = system: Rat; assay: concentration in plasma after dosing; conditions: 5 min; dosed: Nitrite; 80 mg/kg; oral; Female; F344

O=S(=O)([O-])C(F)(F)C(F)(F)C(F)(F)C(F)(F)F.[K+] [Potassium Perfluorobutane Sulfonate]
Conditions | concentration in brain [ng/g] | concentration in kidney [ng/g] | concentration in liver [ng/g] | concentration in plasma [ng/mL]
[1] | – | – | 62000 | –
[2] | 511 | – | – | –
[3] | – | 9690 | – | –
[4] | – | – | – | 2530
[5] | – | – | – | 16400
[6] | – | 23200 | – | –
[8] | – | 26700 | – | –

concentration in plasma [ng/mL]
Conditions | 0.75 h | 5 min | 9 h | 24 h
[7] | 24500 | – | – | 575
[9] | – | 1130 | 13200 | –

O=C(O)C(F)(F)C(F)(F)C(F)(F)C(F)(F)C(F)(F)C(F)(F)C(F)(F)F [Perfluorooctanoic acid]
Conditions | concentration in brain [ng/g] | concentration in kidney [ng/g] | concentration in liver [ng/g] | concentration in plasma [ng/mL]
[10] | – | – | 1600 | –
[11] | – | – | 1440 | –
[12] | – | – | 56700 | –
[13] | 1280 | – | – | –
[14] | – | – | 60800 | –
[15] | – | – | 63300 | –
[20] | – | 43100 | – | –
[21] | – | – | – | 35.2
[22] | – | 2070 | – | –
[23] | – | 26900 | – | –

Conditions | concentration in plasma [ng/mL]
[16], 1 h | 2280
[16], 24 h | 58.8
[17], 0.25 h | 27.2
[17], 6 h | 635
[18], 0.25 h | 204
[18], 6 h | 438
[19], 0.5 h | 79.5
[19], 9 h | 793

COc1ccc(C(=O)c2ccccc2)c(O)c1 [2-Hydroxy-4-methoxybenzophenone]
Conditions | concentration in plasma [µg/mL]
[24] | 0.0556
[26] | 0.0883
[27] | 0.266
[28] | 0.0931
[30] | 4.31

concentration in plasma [µg/mL]
Conditions | [25] | [29]
10 h | 0.00658 | 0.0804
10 min | 3.95 | 0.113

CO [methanol]
[31]
Conditions | amount in urine
0.9988 h | 1.09
2.972 h | 5.07
5.961 h | 7.79
9.961 h | 11.5
11.92 h | 11.7
14.89 h | 11.7

O=N[O-] [Nitrite]
Conditions | concentration in plasma [µg/mL]
[32] | 6.5
[33] | 30.2
[35] | 15.4
[37] | 3.9
[38] | 9.6

concentration in plasma [µg/mL]
Conditions | 1 h | 1.25 h | 2 h | 10 min
[34] | 19 | – | 8.5 | –
[36] | – | 2 | – | 15.4

From EPA's CvTdb concentration-time database
